Measured values taken from ChEMBL document CHEMBL4715837, “Dimeric aryl-substituted imidazoles may inhibit ALT cancer by targeting the multimeric G-quadruplex in telomere” (Eur J Med Chem, 2020).
Active and inactive are the calls of the source. The calls are words filed in the database; no cut-off is given here.

How the values were obtained:
Quadruplex DNA [1] = assay: Binding affinity at Tel21 G4 quadruplex DNA (unknown origin) assessed as change in melting temperature at 6 uM by circular dichroism spectrophotometric method; type: nucleic acid
Quadruplex DNA [2] = assay: Binding affinity at Tel45 G4 quadruplex DNA (unknown origin) assessed as change in melting temperature at 6 uM by circular dichroism spectrophotometric method; type: nucleic-acid assay
U2OS [3] = assay: Cytotoxicity against human U2OS cells assessed as reduction in cell viability measured after 24 hrs by CCK8 assay
U2OS [4] = assay: Cell cycle arrest in human U2OS cells assessed as accumulation at S phase at 0.6 uM measured after 24 hrs by propidium iodide staining based flow cytometry (reference value: 24%); type: functional
Quadruplex DNA [5] = assay: Binding affinity at Tel45 G4 quadruplex DNA (unknown origin) by fluorescence spectroscopic analysis; type: nucleic-acid assay
Quadruplex DNA [6] = assay: Binding affinity at Tel21 G4 quadruplex DNA (unknown origin) by fluorescence spectroscopic analysis; type: nucleic-acid assay
[7] = Binding affinity to hairpin duplex DNA (unknown origin) by fluorescence spectroscopic analysis
Quadruplex DNA [8] = assay: Binding affinity at Tel45 G4 quadruplex DNA (unknown origin) assessed as appearance of new long-lived unquenched species by time resolved fluorescence assay; type: nucleic-acid assay
Quadruplex DNA [9] = assay: Binding affinity at Tel21 G4 quadruplex DNA (unknown origin) by time resolved fluorescence analysis; type: nucleic-acid assay
[10] = Binding affinity to hairpin duplex DNA (unknown origin) by time resolved fluorescence analysis
Quadruplex DNA [11] = assay: Binding affinity to Tel45 G4 quadruplex DNA (unknown origin) assessed as compound-DNA complex formation at stoichiometry ratio of 1:1 by job-plot analysis; type: nucleic-acid assay
Quadruplex DNA [12] = assay: Binding affinity to 2-Ap25 labelled Tel45 G4 quadruplex DNA (unknown origin) up to 10 uM by fluorescence titration assay; type: nucleic-acid assay; conditions: dose microM <=10
Quadruplex DNA [13] = assay: Binding affinity to 2-Ap1 labelled Tel45 G4 quadruplex DNA (unknown origin) up to 10 uM by fluorescence titration assay; type: nucleic-acid assay; conditions: dose microM <=10
Quadruplex DNA [14] = assay: Binding affinity to 2-Ap46 labelled Tel45 G4 quadruplex DNA (unknown origin) up to 10 uM by fluorescence titration assay; type: nucleic-acid assay; conditions: dose microM <=10
Quadruplex DNA [15] = assay: Binding affinity at Tel45-6 mutant G4 quadruplex DNA (unknown origin) by fluorescence spectroscopic analysis; type: nucleic-acid assay
Quadruplex DNA [16] = assay: Binding affinity at Tel45-9 mutant G4 quadruplex DNA (unknown origin) by fluorescence spectroscopic analysis; type: nucleic-acid assay
Quadruplex DNA [17] = assay: Binding affinity at Tel45-6 mutant G4 quadruplex DNA (unknown origin) assessed as change in melting temperature at 6 uM by circular dichroism spectrophotometric method; type: nucleic-acid assay
Quadruplex DNA [18] = assay: Binding affinity at Tel45-9 mutant G4 quadruplex DNA (unknown origin) assessed as change in melting temperature at 6 uM by circular dichroism spectrophotometric method; type: nucleic-acid assay
BJ = assay: Cytotoxicity against human BJ cells assessed as reduction in cell viability measured after 24 hrs by CCK8 assay; type: cell-based
U2OS [19] = assay: Inhibition of colony formation in human U2OS cells supplemented with fresh medium containing compounds every 3 days for 7 days by crystal violet staining based assay; type: functional, cell-based; conditions: dose 0.12-0.5 µM, time 7.0 day
U2OS [20] = assay: Antimigratory activity in human U2OS cells measured after 24 hrs by wound scrape assay; type: functional, cell-based; conditions: dose 1.5-5 µM
U2OS [21] = assay: Cell cycle arrest in human U2OS cells assessed as increase in accumulation at S phase measured after 24 hrs by propidium iodide staining based flow cytometry; type: functional
U2OS [22] = assay: Cell cycle arrest in human U2OS cells assessed as accumulation at Sub-G1 phase at 0.6 uM measured after 24 hrs by propidium iodide staining based flow cytometry (reference value: 0.5%); type: functional
U2OS [23] = assay: Cell cycle arrest in human U2OS cells assessed as accumulation at G0/G1 phase at 0.6 uM measured after 24 hrs by propidium iodide staining based flow cytometry (reference value: 42%); type: functional
U2OS [24] = assay: Cell cycle arrest in human U2OS cells assessed as accumulation at G2/M phase at 0.6 uM measured after 24 hrs by propidium iodide staining based flow cytometry (reference value: 33.5%); type: functional
U2OS [25] = assay: Cell cycle arrest in human U2OS cells assessed as accumulation at Sub-G1 phase at 1.2 uM measured after 24 hrs by propidium iodide staining based flow cytometry (reference value: 0.5%); type: functional
U2OS [26] = assay: Cell cycle arrest in human U2OS cells assessed as accumulation at G0/G1 phase at 1.2 uM measured after 24 hrs by propidium iodide staining based flow cytometry (reference value: 42%); type: functional
U2OS [27] = assay: Cell cycle arrest in human U2OS cells assessed as accumulation at S phase at 1.2 uM measured after 24 hrs by propidium iodide staining based flow cytometry (reference value: 24%); type: functional
U2OS [28] = assay: Cell cycle arrest in human U2OS cells assessed as accumulation at G2/M phase at 1.2 uM measured after 24 hrs by propidium iodide staining based flow cytometry (reference value: 33.5%); type: functional
U2OS [29] = assay: Cell cycle arrest in human U2OS cells assessed as accumulation at Sub-G1 phase at 2.5 uM measured after 24 hrs by propidium iodide staining based flow cytometry (reference value: 0.5%); type: functional
U2OS [30] = assay: Cell cycle arrest in human U2OS cells assessed as accumulation at G0/G1 phase at 2.5 uM measured after 24 hrs by propidium iodide staining based flow cytometry (reference value: 42%); type: functional
U2OS [31] = assay: Cell cycle arrest in human U2OS cells assessed as accumulation at S phase at 2.5 uM measured after 24 hrs by propidium iodide staining based flow cytometry (reference value: 24%); type: functional
U2OS [32] = assay: Cell cycle arrest in human U2OS cells assessed as accumulation at G2/M phase at 2.5 uM measured after 24 hrs by propidium iodide staining based flow cytometry (reference value: 33.5%); type: functional
U2OS [33] = assay: Induction of apoptosis in human U2OS cells assessed as viable cells at 0.6 uM measured after 24 hrs by Annexin-V flour 633/propidium iodide staining based flow cytometry (reference value: 90%); type: functional; conditions: read-out: Activity
U2OS [34] = assay: Induction of apoptosis in human U2OS cells assessed as early apoptotic cells at 0.6 uM measured after 24 hrs by Annexin-V flour 633/propidium iodide staining based flow cytometry (reference value: 9.55%); type: functional
U2OS [35] = assay: Induction of apoptosis in human U2OS cells assessed as late apoptotic cells at 0.6 uM measured after 24 hrs by Annexin-V flour 633/propidium iodide staining based flow cytometry (reference value: 0.03%); type: functional
U2OS [36] = assay: Induction of apoptosis in human U2OS cells assessed as necrotic cells at 0.6 uM measured after 24 hrs by Annexin-V flour 633/propidium iodide staining based flow cytometry (reference value: 0.022%); type: functional
U2OS [37] = assay: Induction of apoptosis in human U2OS cells assessed as viable cells at 1.2 uM measured after 24 hrs by Annexin-V flour 633/propidium iodide staining based flow cytometry (reference value: 90%); type: functional; conditions: read-out: Activity
U2OS [38] = assay: Induction of apoptosis in human U2OS cells assessed as early apoptotic cells at 1.2 uM measured after 24 hrs by Annexin-V flour 633/propidium iodide staining based flow cytometry (reference value: 9.55%); type: functional
U2OS [39] = assay: Induction of apoptosis in human U2OS cells assessed as late apoptotic cells at 1.2 uM measured after 24 hrs by Annexin-V flour 633/propidium iodide staining based flow cytometry (reference value: 0.03%); type: functional
U2OS [40] = assay: Induction of apoptosis in human U2OS cells assessed as necrotic cells at 1.2 uM measured after 24 hrs by Annexin-V flour 633/propidium iodide staining based flow cytometry (reference value: 0.022%); type: functional
U2OS [41] = assay: Induction of apoptosis in human U2OS cells assessed as viable cells at 2.5 uM measured after 24 hrs by Annexin-V flour 633/propidium iodide staining based flow cytometry (reference value: 90%); type: functional; conditions: read-out: Activity
U2OS [42] = assay: Induction of apoptosis in human U2OS cells assessed as early apoptotic cells at 2.5 uM measured after 24 hrs by Annexin-V flour 633/propidium iodide staining based flow cytometry (reference value: 9.55%); type: functional
U2OS [43] = assay: Induction of apoptosis in human U2OS cells assessed as late apoptotic cells at 2.5 uM measured after 24 hrs by Annexin-V flour 633/propidium iodide staining based flow cytometry (reference value: 0.03%); type: functional
U2OS [44] = assay: Induction of apoptosis in human U2OS cells assessed as necrotic cells at 2.5 uM measured after 24 hrs by Annexin-V flour 633/propidium iodide staining based flow cytometry (reference value: 0.022%); type: functional

## CN1CCN(c2ccc(-c3nc(-c4ccc(-c5nc(-c6ccc(N7CCN(C)CC7)cc6)c(-c6ccc(N7CCN(C)CC7)cc6)[nH]5)cc4)[nH]c3-c3ccc(N4CCN(C)CC4)cc3)cc2)CC1
Quadruplex DNA [1]
  deltaTm: 8.9 °C
Quadruplex DNA [2]
  ΔTm: 6.9 °C

## CN1CCN(c2ccc(-c3nc(-c4ccc(-c5nc(-c6ccc(F)cc6)c(-c6ccc(F)cc6)[nH]5)cc4)[nH]c3-c3ccc(N4CCN(C)CC4)cc3)cc2)CC1
Quadruplex DNA [1]
  deltaTm: 6.1 °C
Quadruplex DNA [2]
  ΔTm: 10.9 °C

## CN(C)c1ccc(Nc2c3ccc(NC(=O)CCN4CCCC4)cc3nc3cc(NC(=O)CCN4CCCC4)ccc23)cc1
U2OS [3]
  IC50: > 40 µM

## CN1CCN(c2ccc(-c3nc(-c4ccc(-c5nc(-c6ccc(F)cc6)c(-c6ccc(N7CCN(C)CC7)cc6)[nH]5)cc4)[nH]c3-c3ccc(N4CCN(C)CC4)cc3)cc2)CC1
Quadruplex DNA [1]
  deltaTm: 6.5 °C
Quadruplex DNA [2]
  ΔTm: 15.7 °C

## CN1CCN(c2ccc(-c3nc(-c4ccc(-c5nc(-c6ccc(F)cc6)c(-c6ccc(N7CCN(C)CC7)cc6)[nH]5)cc4)[nH]c3-c3ccc(F)cc3)cc2)CC1
U2OS [4]
  Activity: 25%
Quadruplex DNA [1]
  deltaTm: 1.7 °C
Quadruplex DNA [2]
  ΔTm: 12.7 °C
Quadruplex DNA [5]
  Kd: 4.6 µM
Quadruplex DNA [6]
  Kd: 18.4 µM
[7]
  Kd: 51.7 µM
Quadruplex DNA [8]
  Activity: Active
Quadruplex DNA [9]
  Activity: Not Active
[10]
  Activity: Not Active
Quadruplex DNA [11]
  Activity: Active
Quadruplex DNA [12]
  Activity: Active
Quadruplex DNA [13]
  Activity: inactive
Quadruplex DNA [14]
  Activity: inactive
Quadruplex DNA [15]
  Kd: 8.6 µM
Quadruplex DNA [16]
  Kd: 10.7 µM
Quadruplex DNA [17]
  deltaTm: 2.5 °C
Quadruplex DNA [18]
  deltaTm: 4.3 °C
U2OS [3]
  IC50: 2.1 µM
BJ
  IC50: 29.3 µM
U2OS [19]
  inhibition: Dose-dependent effect
U2OS [20]
  Activity: Dose-dependent effect
U2OS [21]
  Activity: Dose-dependent effect
U2OS [22]
  Activity: 0.3%
U2OS [23]
  Activity: 41.4%
U2OS [24]
  Activity: 33.4%
U2OS [25]
  Activity: 0.4%
U2OS [26]
  Activity: 39.3%
U2OS [27]
  Activity: 25.9%
U2OS [28]
  Activity: 34.4%
U2OS [29]
  Activity: 3.4%
U2OS [30]
  Activity: 36.5%
U2OS [31]
  Activity: 32.2%
U2OS [32]
  Activity: 27.9%
U2OS [33]
  viability at 0.6 µM: 84.3%
U2OS [34]
  Activity: 12.5%
U2OS [35]
  Activity: 3.05%
U2OS [36]
  Activity: 0.14%
U2OS [37]
  viability at 1.2 µM: 76.8%
U2OS [38]
  Activity: 17.9%
U2OS [39]
  Activity: 4.78%
U2OS [40]
  Activity: 0.53%
U2OS [41]
  viability at 2.5 µM: 73.7%
U2OS [42]
  Activity: 20%
U2OS [43]
  Activity: 4.92%
U2OS [44]
  Activity: 1.34%
